Reference: ChEMBL document CHEMBL5096166, “Discovery of an Orally Efficacious Positive Allosteric Modulator of the Glucagon-like Peptide-1 Receptor” (J Med Chem, 2021)
Activity calls are given as the source filed them. No cut-off for these calls is given here.

Legend:
[1] = target: T1, Glucagon-like peptide 1 receptor (Homo sapiens, UniProt P43220); assay: Positive allosteric modulator activity at human GLP-1R expressed in HEK293 cells assessed as fold increase in potentiation of GLP-1(9-36) induced cAMP accumulation in presence of IBMX relative to GLP-1(9-36); format: functional, cell-based
T1 sequence (P43220 whole entry): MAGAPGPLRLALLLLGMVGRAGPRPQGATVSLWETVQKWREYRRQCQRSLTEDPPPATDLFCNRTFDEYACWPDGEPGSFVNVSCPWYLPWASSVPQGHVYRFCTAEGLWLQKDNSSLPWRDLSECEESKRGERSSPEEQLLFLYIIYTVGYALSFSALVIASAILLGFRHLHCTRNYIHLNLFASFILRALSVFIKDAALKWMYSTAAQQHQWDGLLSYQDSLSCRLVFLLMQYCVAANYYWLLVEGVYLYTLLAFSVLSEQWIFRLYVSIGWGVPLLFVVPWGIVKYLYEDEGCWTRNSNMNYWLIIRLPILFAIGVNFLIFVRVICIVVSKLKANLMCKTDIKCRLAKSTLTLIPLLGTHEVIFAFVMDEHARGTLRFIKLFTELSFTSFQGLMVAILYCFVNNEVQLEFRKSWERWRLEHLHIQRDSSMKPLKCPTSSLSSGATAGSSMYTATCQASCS

[2] = target: T1, Glucagon-like peptide 1 receptor; assay: Positive allosteric modulator activity at human GLP-1R expressed in HEK293 cells assessed as potentiation of GLP-1(9-36) induced cAMP accumulation by measuring maximal efficacy in presence of IBMX relative to GLP-1(9-36); format: functional, cell-based; settings: filed as positive allosteric modulator
[3] = target: T1, Glucagon-like peptide 1 receptor; assay: Positive allosteric modulator activity at human GLP-1R expressed in HEK293 cells assessed as potentiation of EC20 GLP-1(9-36) induced cAMP accumulation in presence of IBMX relative to GLP-1(9-36); format: functional, cell-based
[4] = target: T1, Glucagon-like peptide 1 receptor; assay: Positive allosteric modulator activity at human GLP-1R expressed in HEK293 cells assessed as potentiation of EC20 GLP-1(9-36) induced cAMP accumulation by measuring maximal efficacy in presence of IBMX relative to GLP-1(9-36); format: functional, cell-based; settings: filed as positive allosteric modulator
[5] = target: T1, Glucagon-like peptide 1 receptor; assay: Agonist activity at human GLP-1R expressed in HEK293 cells assessed as potentiation of GLP-1(9-36) induced cAMP accumulation by measuring maximal efficacy at 0.12 uM in presence of IBMX relative to GLP-1(9-36); format: functional, cell-based; settings: filed as agonist
[6] = Volume of distribution at steady state in Beagle dog at 1 mg/kg, iv measured upto 8 hrs by LC-MS/MS analysis; format: ADME, organism-based, Canis lupus familiaris; settings: in vivo, read-out: Vdss
[7] = Half life in CD1 mouse at 1 mg/kg, iv measured upto 8 hrs by LC-MS/MS analysis; format: ADME, organism-based; settings: in vivo
[8] = Cmax in Sprague-Dawley rat at 1 mg/kg, iv measured upto 8 hrs by LC-MS/MS analysis; format: ADME, organism-based; parameters: dose 1 mg/kg, time < 8 hrs, route iv; settings: in vivo
[9] = AUC in CD1 mouse at 1 mg/kg, iv measured upto 8 hrs by LC-MS/MS analysis; format: ADME, organism-based; parameters: time < 8 hrs, dose 1 mg/kg, route iv; settings: in vivo
[10] = target: T1, Glucagon-like peptide 1 receptor; assay: Agonist activity at human GLP-1R expressed in CHO-K1 cells assessed as potentiation of GLP-1(9-36) induced beta-arrestin recruitment by measuring maximal efficacy relative to GLP-1(9-36); format: functional, cell-based
[11] = Cmax in Beagle dog at 1 mg/kg, iv measured upto 8 hrs by LC-MS/MS analysis; format: ADME, organism-based, Canis lupus familiaris; parameters: time < 8 hrs, dose 1 mg/kg, route iv; settings: in vivo
[12] = AUC in Sprague-Dawley rat at 1 mg/kg, iv measured upto 8 hrs by LC-MS/MS analysis; format: ADME, organism-based; parameters: time < 8 hrs, dose 1 mg/kg, route iv; settings: in vivo
[13] = Tmax in Sprague-Dawley rat at 3 mg/kg, po measured upto 16 hrs by LC-MS/MS analysis; format: ADME, organism-based; settings: in vivo
[14] = Volume of distribution at steady state in Sprague-Dawley rat at 1 mg/kg, iv measured upto 8 hrs by LC-MS/MS analysis; format: ADME, organism-based; settings: in vivo, read-out: Vdss
[15] = Cmax in CD1 mouse at 1 mg/kg, iv measured upto 8 hrs by LC-MS/MS analysis; format: ADME, organism-based; parameters: time < 8 hrs, dose 1 mg/kg, route iv; settings: in vivo
[16] = Clearance in Beagle dog at 1 mg/kg, iv measured upto 8 hrs by LC-MS/MS analysis; format: ADME, organism-based, Canis lupus familiaris; settings: in vivo
[17] = system: Mus musculus; assay: Anti-hyperglycemic activity in overnight-fasted GIPR KO C57BL/6 mouse assessed as reduction in blood glucose AUC at 30 mg/kg, po pretreated with compound for 30 mins followed by dextrose addition measured every 15 mins for 60 mins in presence of sitagliptin by oral glucose tolerance test relative to control; format: functional; parameters: scale not given: the % may be the effect or the level left; settings: time 90 min, 1.5 h
[18] = target: T1, Glucagon-like peptide 1 receptor; assay: Positive allosteric modulator activity at human GLP-1R transfected in rat INS-1 832/13 cells assessed as potentiation of GLP-1(9-36) induced cAMP accumulation by measuring maximal efficacy at 3 uM relative to GLP-1(9-36); format: functional, cell-based; settings: filed as positive allosteric modulator
[19] = system: Mus musculus; assay: Anti-hyperglycemic activity in overnight-fasted GIPR KO C57BL/6 mouse assessed as reduction in blood glucose AUC at 10 mg/kg, po pretreated with compound for 30 mins followed by dextrose addition measured every 15 mins for 60 mins by oral glucose tolerance test relative to control; format: functional; parameters: scale not given: the % may be the effect or the level left; settings: time 90 min, 1.5 h
[20] = target: T1, Glucagon-like peptide 1 receptor; assay: Agonist activity at human GLP-1R expressed in CHO-K1 cells assessed as fold increase in potentiation of EC50 GLP-1(7-36) induced beta-arrestin recruitment; format: functional, cell-based
[21] = target: T1, Glucagon-like peptide 1 receptor; assay: Partial agonist activity at human GLP-1R expressed in HEK293 cells assessed as potentiation of GLP-1(9-36) induced cAMP accumulation by measuring maximal efficacy in presence of IBMX relative to GLP-1(9-36); format: functional, cell-based
[22] = target: T1, Glucagon-like peptide 1 receptor; assay: Agonist activity at human GLP-1R expressed in CHO-K1 cells assessed as potentiation of GLP-1(9-36) induced beta-arrestin recruitment; format: functional, cell-based
[23] = Volume of distribution at steady state in CD1 mouse at 1 mg/kg, iv measured upto 8 hrs by LC-MS/MS analysis; format: ADME, organism-based; settings: in vivo, read-out: Vdss
[24] = system: Mus musculus; assay: Anti-hyperglycemic activity in overnight-fasted GIPR KO C57BL/6 mouse assessed as reduction in blood glucose AUC at 10 mg/kg, po pretreated with compound for 30 mins followed by dextrose addition measured every 15 mins for 60 mins in presence of sitagliptin by oral glucose tolerance test relative to control; format: functional; parameters: scale not given: the % may be the effect or the level left; settings: time 90 min, 1.5 h
[25] = target: T1, Glucagon-like peptide 1 receptor; assay: Agonist activity at human GLP-1R expressed in HEK293 cells assessed as potentiation of GLP-1(9-36) induced cAMP accumulation in presence of IBMX; format: functional, cell-based
[26] = AUC in Sprague-Dawley rat at 3 mg/kg, po measured upto 16 hrs by LC-MS/MS analysis; format: ADME, organism-based; parameters: dose 3 mg/kg, time < 16 hrs, route po; settings: in vivo
[27] = Clearance in Sprague-Dawley rat at 1 mg/kg, iv measured upto 8 hrs by LC-MS/MS analysis; format: ADME, organism-based; settings: in vivo
[28] = target: T1, Glucagon-like peptide 1 receptor; assay: Positive allosteric modulator activity at human GLP-1R transfected in rat INS-1 832/13 cells assessed as fold increase in potentiation of GLP-1(7-36) induced cAMP accumulation at 0.1 uM; format: functional, cell-based
[29] = Cmax in Sprague-Dawley rat at 3 mg/kg, po measured upto 16 hrs by LC-MS/MS analysis; format: ADME, organism-based; parameters: time < 16 hrs, dose 3 mg/kg, route po; settings: in vivo
[30] = AUC in Beagle dog at 1 mg/kg, iv measured upto 8 hrs by LC-MS/MS analysis; format: ADME, organism-based, Canis lupus familiaris; parameters: time < 8 hrs, dose 1 mg/kg, route iv; settings: in vivo
[31] = Oral bioavailability in Sprague-Dawley rat at 3 mg/kg measured upto 16 hrs by LC-MS/MS analysis; format: ADME, organism-based; settings: in vivo
[32] = Half life in CD1 mouse at 3 mg/kg, po measured upto 16 hrs by LC-MS/MS analysis; format: ADME, organism-based; settings: in vivo
[33] = Cmax in CD1 mouse at 3 mg/kg, po measured upto 16 hrs by LC-MS/MS analysis; format: ADME, organism-based; parameters: dose 3 mg/kg, time < 16 hrs, route po; settings: in vivo
[34] = target: T1, Glucagon-like peptide 1 receptor; assay: Agonist activity at human GLP-1R expressed in HEK293 cells assessed as potentiation of GLP-1(7-36) induced cAMP accumulation; format: functional, cell-based
[35] = Oral bioavailability in CD1 mouse at 3 mg/kg measured upto 16 hrs by LC-MS/MS analysis; format: ADME, organism-based; settings: in vivo
[36] = target: T1, Glucagon-like peptide 1 receptor; assay: Partial agonist activity at human GLP-1R expressed in HEK293 cells assessed as potentiation of GLP-1(9-36) induced cAMP accumulation in presence of IBMX; format: functional, cell-based
[37] = Tmax in CD1 mouse at 3 mg/kg, po measured upto 16 hrs by LC-MS/MS analysis; format: ADME, organism-based; settings: in vivo
[38] = Half life in Sprague-Dawley rat at 3 mg/kg, po measured upto 16 hrs by LC-MS/MS analysis; format: ADME, organism-based; settings: in vivo
[39] = target: T1, Glucagon-like peptide 1 receptor; assay: Positive allosteric modulator activity at human GLP-1R transfected in rat INS-1 832/13 cells assessed as increase in GLP-1(9-36) induced insulin levels at 3 uM in presence of high glucose; format: cell-based; settings: filed as positive allosteric modulator
[40] = Clearance in CD1 mouse at 1 mg/kg, iv measured upto 8 hrs by LC-MS/MS analysis; format: ADME, organism-based; settings: in vivo
[41] = target: T1, Glucagon-like peptide 1 receptor; assay: Positive allosteric modulator activity at human GLP-1R transfected in rat INS-1 832/13 cells assessed as potentiation of GLP-1(9-36) induced cAMP accumulation; format: functional, cell-based
[42] = system: Mus musculus; assay: Anti-hyperglycemic activity in overnight-fasted GIPR KO C57BL/6 mouse assessed as reduction in blood glucose AUC at 30 mg/kg, po pretreated with compound for 30 mins followed by dextrose addition measured every 15 mins for 60 mins by oral glucose tolerance test relative to control; format: functional; parameters: scale not given: the % may be the effect or the level left; settings: time 90 min, 1.5 h
[43] = AUC in CD1 mouse at 3 mg/kg, po measured upto 16 hrs by LC-MS/MS analysis; format: ADME, organism-based; parameters: dose 3 mg/kg, time < 16 hrs, route po; settings: in vivo
[44] = Half life in Beagle dog at 1 mg/kg, iv measured upto 8 hrs by LC-MS/MS analysis; format: ADME, organism-based, Canis lupus familiaris; settings: in vivo
[45] = Half life in Sprague-Dawley rat at 1 mg/kg, iv measured upto 8 hrs by LC-MS/MS analysis; format: ADME, organism-based; settings: in vivo

COc1ccc(Cl)c([C@@H](C)n2cnc3ccc(Br)cc32)c1Cl
fold change (FC) [1]: 250
Emax [2]: 115%
EC50 [3]: 800 nM
Emax [4]: 102%

C[C@H](c1c(Cl)ccc(C2CC2)c1Cl)n1cnc2cnc(-c3ccccc3[C@@H](C)C(=O)O)cc21
Emax [5]: 92%
Vd [6]: 0.3 L/kg
half-life [7]: 2.1 h
Cmax [8]: 1420 nM
AUC at 8 h [9]: 3.64 µM·h
Emax [10]: 10%
Cmax [11]: 6870 nM
AUC at 8 h [12]: 0.859 µM·h
Tmax [13]: 1.8 h
fold change (FC) [1]: 830
Vd [14]: 1.6 L/kg
Cmax [15]: 1430 nM
clearance [16]: 18.5 mL/min/kg
Activity [17]: 65%
Emax [18]: 87%
Activity [19]: 9%
fold change (FC) [20]: 1.9
Emax [21]: 13%
EC50 [22]: 12 nM
Vd [23]: 1.6 L/kg
Activity [24]: 29%
EC50 [25]: 7 nM
AUC at 16 h [26]: 1.16 µM·h
clearance [27]: 41.9 mL/min/kg
fold change (FC) [28]: 2.7
Cmax [29]: 183 nM
AUC at 8 h [30]: 1.88 µM·h
Emax [2]: 102%
EC50 [3]: 270 nM
bioavailability [31]: 45%
half-life [32]: 1.6 h
Cmax [33]: 2040 nM
EC50 [34]: 0.085 nM
bioavailability [35]: 67%
EC50 [36]: 1800 nM
Tmax [37]: 0.58 h
half-life [38]: 2.9 h
Activity [39]: Active
Emax [4]: 98%
clearance [40]: 9 mL/min/kg
EC50 [41]: 7 nM
Activity [42]: 40%
AUC at 16 h [43]: 7.3 µM·h
half-life [44]: 0.6 h
half-life [45]: 0.6 h

CC(C(=O)O)c1ccccc1-c1cc2c(cn1)ncn2[C@H](C)c1c(Cl)ccc(C2CC2)c1Cl (some centres not stated)
fold change (FC) [1]: 7300
Emax [2]: 103%
EC50 [3]: 14 nM
Emax [4]: 104%

N[C@@H](CC(=O)N1CCn2c(nnc2C(F)(F)F)C1)Cc1cc(F)c(F)cc1F [SITAGLIPTIN]
Activity [19]: 18%

C[C@H](c1c(Cl)ccc(C2CC2)c1Cl)n1cnc2cnc(Br)cc21
fold change (FC) [1]: 300
Emax [2]: 110%
EC50 [3]: 1800 nM
Emax [4]: 113%

COc1ccc(Cl)c([C@@H](C)n2cnc3ccc(-c4ccccc4[C@H]4CCCCN4)cc32)c1Cl
fold change (FC) [1]: 15000
Emax [2]: 88%
EC50 [3]: 24 nM
Emax [4]: 120%
